In article PMC6199744, “Development of Chemical Proteomics for the Folateome and Analysis of the Kinetoplastid Folateome” (ACS Infectious Diseases, 2018):
Where two headings read alike, the source gives them in different places.

Legend:
Type in all cases: binding
[1] = target: T1, HeLa cell extract proteins (Homo sapiens, UniProt O95347); details: protein SMC2; HeLa
T1 construct: endogenous in cells; host or cells: HeLa cell extract

[2] = target: T2, HeLa cell extract proteins (Homo sapiens, UniProt P09669); details: captured protein COX6C; HeLa
T2 construct: endogenous in cells; host or cells: HeLa cell extract

[3] = target: T3, HeLa cell extract proteins (Homo sapiens, UniProt P21266); details: protein GSTM3; HeLa
T3 construct: endogenous in cells; host or cells: HeLa cell extract
T3 sequence (P21266 1-225): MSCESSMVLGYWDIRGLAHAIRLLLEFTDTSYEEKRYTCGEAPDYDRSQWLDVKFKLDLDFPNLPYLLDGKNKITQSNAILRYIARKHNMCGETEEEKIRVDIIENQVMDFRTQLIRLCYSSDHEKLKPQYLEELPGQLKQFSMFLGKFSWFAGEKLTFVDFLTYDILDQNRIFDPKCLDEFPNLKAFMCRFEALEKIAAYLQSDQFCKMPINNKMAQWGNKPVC

[4] = target: T4, HeLa cell extract proteins (Homo sapiens, UniProt P26368); details: protein U2AF2; HeLa
T4 construct: endogenous in cells; host or cells: HeLa cell extract

[5] = target: T5, HeLa cell extract proteins (Homo sapiens, UniProt P39687); details: protein ANP32A; HeLa
T5 construct: endogenous in cells; host or cells: HeLa cell extract

[6] = target: T6, HeLa cell extract proteins (Homo sapiens, UniProt P46976); details: protein GYG1; HeLa
T6 construct: endogenous in cells; host or cells: HeLa cell extract
T6 sequence (P46976 1-350): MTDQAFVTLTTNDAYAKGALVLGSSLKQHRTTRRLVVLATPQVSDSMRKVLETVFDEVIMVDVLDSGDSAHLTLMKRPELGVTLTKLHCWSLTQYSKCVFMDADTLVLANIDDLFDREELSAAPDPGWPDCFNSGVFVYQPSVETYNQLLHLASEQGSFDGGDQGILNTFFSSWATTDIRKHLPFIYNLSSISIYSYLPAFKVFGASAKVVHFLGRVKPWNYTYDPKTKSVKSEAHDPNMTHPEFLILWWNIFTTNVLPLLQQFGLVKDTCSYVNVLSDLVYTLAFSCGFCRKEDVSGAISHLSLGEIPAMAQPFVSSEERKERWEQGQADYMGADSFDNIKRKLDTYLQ

[7] = target: T7, HeLa cell extract proteins (Homo sapiens, UniProt O43819)
T7 construct: endogenous in cells; host or cells: HeLa cell extract
T7 sequence (O43819 42-266): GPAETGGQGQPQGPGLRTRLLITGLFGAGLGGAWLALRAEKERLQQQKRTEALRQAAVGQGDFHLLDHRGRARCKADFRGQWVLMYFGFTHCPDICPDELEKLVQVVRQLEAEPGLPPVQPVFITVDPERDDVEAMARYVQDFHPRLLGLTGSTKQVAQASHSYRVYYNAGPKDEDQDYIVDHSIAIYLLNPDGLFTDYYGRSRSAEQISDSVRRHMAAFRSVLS

[8] = target: T8, HeLa cell extract proteins (Homo sapiens, UniProt P04279)
T8 construct: endogenous in cells; host or cells: HeLa cell extract
T8 sequence (P04279 24-462): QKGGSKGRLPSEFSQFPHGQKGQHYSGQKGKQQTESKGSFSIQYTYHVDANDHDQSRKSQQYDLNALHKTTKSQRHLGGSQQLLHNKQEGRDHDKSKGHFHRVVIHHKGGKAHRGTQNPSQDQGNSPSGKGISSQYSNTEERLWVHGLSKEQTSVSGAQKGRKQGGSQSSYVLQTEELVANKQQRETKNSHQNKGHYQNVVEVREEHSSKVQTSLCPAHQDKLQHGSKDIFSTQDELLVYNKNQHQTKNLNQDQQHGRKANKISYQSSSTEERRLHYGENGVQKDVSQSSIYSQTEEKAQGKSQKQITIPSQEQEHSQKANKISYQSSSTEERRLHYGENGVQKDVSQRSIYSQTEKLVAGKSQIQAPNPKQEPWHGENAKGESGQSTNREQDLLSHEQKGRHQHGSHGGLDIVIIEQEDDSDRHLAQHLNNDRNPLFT

[9] = target: T9, HeLa cell extract proteins (Homo sapiens, UniProt P49736)
T9 construct: endogenous in cells; host or cells: HeLa cell extract

[10] = target: T10, HeLa cell extract proteins (Homo sapiens, UniProt P52292)
T10 construct: endogenous in cells; host or cells: HeLa cell extract

[11] = target: T11, HeLa cell extract proteins (Homo sapiens, UniProt Q16543)
T11 construct: endogenous in cells; host or cells: HeLa cell extract
T11 sequence (Q16543 1-378): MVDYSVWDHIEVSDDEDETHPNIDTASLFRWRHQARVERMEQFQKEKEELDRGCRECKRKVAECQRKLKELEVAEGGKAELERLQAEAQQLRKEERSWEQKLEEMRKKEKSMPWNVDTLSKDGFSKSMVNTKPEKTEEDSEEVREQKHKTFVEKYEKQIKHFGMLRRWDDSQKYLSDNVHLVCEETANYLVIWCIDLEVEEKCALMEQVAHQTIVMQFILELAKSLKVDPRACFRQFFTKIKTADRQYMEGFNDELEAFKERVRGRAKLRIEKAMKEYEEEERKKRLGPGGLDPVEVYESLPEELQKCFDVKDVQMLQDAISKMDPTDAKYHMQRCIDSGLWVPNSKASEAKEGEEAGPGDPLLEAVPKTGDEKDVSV

[12] = target: T12, HeLa cell extract proteins (Homo sapiens, UniProt Q92499)
T12 construct: endogenous in cells; host or cells: HeLa cell extract
T12 sequence (Q92499 1-740): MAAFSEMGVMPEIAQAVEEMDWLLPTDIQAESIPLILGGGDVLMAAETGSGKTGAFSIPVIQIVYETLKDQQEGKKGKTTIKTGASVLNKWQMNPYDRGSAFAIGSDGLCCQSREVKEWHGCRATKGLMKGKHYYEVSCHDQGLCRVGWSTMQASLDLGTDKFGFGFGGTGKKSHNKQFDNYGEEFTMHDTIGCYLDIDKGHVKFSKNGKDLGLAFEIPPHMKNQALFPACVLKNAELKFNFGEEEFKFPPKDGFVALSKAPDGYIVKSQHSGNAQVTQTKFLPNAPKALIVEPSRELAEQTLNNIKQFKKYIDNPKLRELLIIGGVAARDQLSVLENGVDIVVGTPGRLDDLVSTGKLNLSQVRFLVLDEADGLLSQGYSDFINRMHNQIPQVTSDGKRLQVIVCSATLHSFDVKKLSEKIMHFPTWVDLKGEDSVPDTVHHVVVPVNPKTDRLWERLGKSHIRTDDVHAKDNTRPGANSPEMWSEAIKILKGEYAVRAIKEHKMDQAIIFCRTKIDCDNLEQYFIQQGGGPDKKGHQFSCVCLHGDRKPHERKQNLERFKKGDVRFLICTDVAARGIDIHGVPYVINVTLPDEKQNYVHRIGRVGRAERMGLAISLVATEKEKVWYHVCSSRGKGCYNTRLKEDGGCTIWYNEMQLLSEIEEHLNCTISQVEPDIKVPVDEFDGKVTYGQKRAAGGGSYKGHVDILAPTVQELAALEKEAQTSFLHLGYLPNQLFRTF

T9 sequence (P49736 whole entry): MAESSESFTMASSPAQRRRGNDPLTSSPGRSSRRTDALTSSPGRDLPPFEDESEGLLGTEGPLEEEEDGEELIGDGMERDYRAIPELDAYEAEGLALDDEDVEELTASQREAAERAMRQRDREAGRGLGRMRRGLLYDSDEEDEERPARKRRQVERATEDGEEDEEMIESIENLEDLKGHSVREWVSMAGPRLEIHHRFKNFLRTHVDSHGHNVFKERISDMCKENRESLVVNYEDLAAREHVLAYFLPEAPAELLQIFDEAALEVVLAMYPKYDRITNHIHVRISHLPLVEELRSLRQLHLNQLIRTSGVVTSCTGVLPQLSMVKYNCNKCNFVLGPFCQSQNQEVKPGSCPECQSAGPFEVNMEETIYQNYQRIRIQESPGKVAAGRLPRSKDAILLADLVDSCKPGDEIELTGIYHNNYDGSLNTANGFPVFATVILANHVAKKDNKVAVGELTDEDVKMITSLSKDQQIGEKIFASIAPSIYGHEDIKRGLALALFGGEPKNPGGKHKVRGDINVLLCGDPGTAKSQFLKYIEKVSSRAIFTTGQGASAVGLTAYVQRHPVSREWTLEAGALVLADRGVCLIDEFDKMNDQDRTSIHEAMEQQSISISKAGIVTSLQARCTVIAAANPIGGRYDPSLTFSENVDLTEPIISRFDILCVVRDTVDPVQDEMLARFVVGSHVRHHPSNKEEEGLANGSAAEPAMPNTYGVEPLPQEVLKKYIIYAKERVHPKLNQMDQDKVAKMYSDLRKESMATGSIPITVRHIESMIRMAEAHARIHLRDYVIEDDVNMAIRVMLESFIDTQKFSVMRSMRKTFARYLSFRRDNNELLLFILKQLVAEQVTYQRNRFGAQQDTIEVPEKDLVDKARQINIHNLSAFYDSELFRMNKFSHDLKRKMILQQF
T1 sequence (O95347 whole entry): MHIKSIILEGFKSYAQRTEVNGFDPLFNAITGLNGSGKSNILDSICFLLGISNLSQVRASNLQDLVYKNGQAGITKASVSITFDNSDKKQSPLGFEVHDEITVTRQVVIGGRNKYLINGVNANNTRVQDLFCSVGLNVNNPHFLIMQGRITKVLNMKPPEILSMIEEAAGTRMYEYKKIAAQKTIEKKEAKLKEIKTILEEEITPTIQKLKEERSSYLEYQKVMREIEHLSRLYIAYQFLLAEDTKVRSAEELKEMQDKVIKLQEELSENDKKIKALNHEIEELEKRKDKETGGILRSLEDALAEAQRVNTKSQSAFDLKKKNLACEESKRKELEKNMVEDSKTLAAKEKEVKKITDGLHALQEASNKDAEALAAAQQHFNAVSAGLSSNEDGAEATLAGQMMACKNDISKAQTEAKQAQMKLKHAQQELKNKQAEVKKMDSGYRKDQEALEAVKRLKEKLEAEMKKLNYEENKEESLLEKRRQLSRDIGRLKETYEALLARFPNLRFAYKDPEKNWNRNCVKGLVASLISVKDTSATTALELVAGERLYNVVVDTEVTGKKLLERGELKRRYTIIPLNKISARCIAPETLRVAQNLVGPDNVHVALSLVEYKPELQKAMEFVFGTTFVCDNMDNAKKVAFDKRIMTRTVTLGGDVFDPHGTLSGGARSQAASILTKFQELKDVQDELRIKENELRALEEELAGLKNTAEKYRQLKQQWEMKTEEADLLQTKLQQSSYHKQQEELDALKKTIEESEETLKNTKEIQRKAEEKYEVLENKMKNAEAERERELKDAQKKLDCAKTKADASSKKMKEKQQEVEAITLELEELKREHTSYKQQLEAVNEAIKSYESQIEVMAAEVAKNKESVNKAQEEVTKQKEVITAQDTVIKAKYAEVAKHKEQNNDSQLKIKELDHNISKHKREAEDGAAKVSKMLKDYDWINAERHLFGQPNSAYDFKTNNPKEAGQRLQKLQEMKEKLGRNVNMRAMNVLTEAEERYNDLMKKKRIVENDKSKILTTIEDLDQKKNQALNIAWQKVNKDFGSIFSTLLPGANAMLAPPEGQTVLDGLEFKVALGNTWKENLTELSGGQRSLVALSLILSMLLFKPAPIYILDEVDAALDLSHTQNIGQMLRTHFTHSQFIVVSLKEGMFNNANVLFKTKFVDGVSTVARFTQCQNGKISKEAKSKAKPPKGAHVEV
T2 sequence (P09669 whole entry): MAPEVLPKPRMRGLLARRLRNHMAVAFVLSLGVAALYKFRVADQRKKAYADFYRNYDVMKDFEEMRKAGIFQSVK
T5 sequence (P39687 whole entry): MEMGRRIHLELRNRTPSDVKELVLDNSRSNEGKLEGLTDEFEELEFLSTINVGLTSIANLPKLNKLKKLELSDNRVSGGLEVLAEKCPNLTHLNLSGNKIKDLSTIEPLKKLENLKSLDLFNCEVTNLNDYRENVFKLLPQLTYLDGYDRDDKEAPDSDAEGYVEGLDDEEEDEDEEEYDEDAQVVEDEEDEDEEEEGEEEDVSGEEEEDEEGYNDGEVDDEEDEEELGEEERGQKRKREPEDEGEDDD
T4 sequence (P26368 whole entry): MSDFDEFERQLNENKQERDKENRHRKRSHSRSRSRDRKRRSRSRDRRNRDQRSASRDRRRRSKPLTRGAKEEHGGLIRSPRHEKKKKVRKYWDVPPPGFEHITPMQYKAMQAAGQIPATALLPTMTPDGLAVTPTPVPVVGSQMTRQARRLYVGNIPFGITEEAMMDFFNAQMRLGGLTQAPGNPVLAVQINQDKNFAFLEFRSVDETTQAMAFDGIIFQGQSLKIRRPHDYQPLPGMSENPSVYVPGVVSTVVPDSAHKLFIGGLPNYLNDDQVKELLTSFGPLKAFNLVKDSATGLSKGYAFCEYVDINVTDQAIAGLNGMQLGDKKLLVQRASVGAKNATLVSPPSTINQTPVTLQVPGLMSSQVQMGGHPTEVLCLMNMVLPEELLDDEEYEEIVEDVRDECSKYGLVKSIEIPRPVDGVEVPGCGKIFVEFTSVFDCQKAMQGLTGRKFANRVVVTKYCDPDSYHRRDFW

Structure (SMILES) | fold changes relative to vehicle control [1] | fold changes relative to vehicle control [2] | fold changes relative to vehicle control [3] | fold changes relative to vehicle control [4] | fold changes relative to vehicle control [5] | fold changes relative to vehicle control [6] | fold changes relative to vehicle control ([7]; HeLa, protein SCO2) | fold changes relative to vehicle control ([8]; protein SEMG1, HeLa) | fold changes relative to vehicle control ([9]; HeLa, protein MCM2) | fold changes relative to vehicle control ([10]; HeLa, captured protein KPNA2) | fold changes relative to vehicle control ([11]; protein CDC37, HeLa) | fold changes relative to vehicle control ([12]; HeLa, captured protein DDX1) | other results
Nc1nc2cccc(-c3ccccc3)c2n1Cc1ccc(Cl)c(Cl)c1 [compound 3] | 1.11 | 1.07 | 0.93 | 0.93 | 0.78 | 0.95 | – | – | – | – | – | – | –
Nc1nc2[nH]cc(CCc3ccc(C(=O)N[C@@H](CCC(=O)O)C(=O)O)cc3)c2c(=O)[nH]1 [PTX, pemetrexed] | – | – | – | – | – | – | – | – | – | – | – | – | fold changes relative to vehicle control [7]: 0.95; fold changes relative to vehicle control [8]: 0.14; fold changes relative to vehicle control [9]: 1.05; fold changes relative to vehicle control [10]: 1; fold changes relative to vehicle control [11]: 1.1; fold changes relative to vehicle control [12]: 1.14
Nc1nc2c(c(=O)[nH]1)N(C=O)C(CNc1ccc(C(=O)N[C@@H](CCC(=O)O)C(=O)O)cc1)CN2 (stereo partly drawn) [LEU, leucovorin] | – | – | – | – | – | – | 0.95 | 0.13 | 1.06 | 1.01 | 1.13 | 1.15 | –
CCCCCCOc1cccc(Cc2cnc(N)nc2N)c1 [compound 2] | 1.36 | 0.94 | 1.72 | 1.36 | 2.37 | 1.31 | – | – | – | – | – | – | –
NCCOCCOCC(=O)Nc1nc2ncc(CNc3ccc(C(=O)NC(CCC(=O)O)C(=O)O)cc3)nc2c(=O)[nH]1 (stereo not drawn) [compound 6] | – | – | – | – | – | – | 1.02 | 0.16 | 1.18 | 1.13 | 1.21 | 1.12 | –
CCCCCCOc1ccc(Cc2cnc(N)nc2N)cc1 [compound 1] | 1.4 | 0.88 | 1.22 | 1.12 | 1.44 | 1.09 | – | – | – | – | – | – | –
NCCCNc1ccc(C(=O)NC(CCC(=O)O)C(=O)O)cc1 (stereo not drawn) [compound 7] | – | – | – | – | – | – | 1.03 | 0.09 | 0.88 | 0.99 | 1.14 | 1.11 | –
